The values below come from US10208046B2, “Nitrogen-containing heterocyclic compound” (Takeda Pharmaceutical Company Limited, priority 2014, dated 2019).

SMILES strings stand for the structures.

In this test the target is T1, human M1 receptor (hCHRM1) (Homo sapiens, UniProt P11229).
T1 construct: expressed in transfected cells
T1 sequence (P11229 1-460): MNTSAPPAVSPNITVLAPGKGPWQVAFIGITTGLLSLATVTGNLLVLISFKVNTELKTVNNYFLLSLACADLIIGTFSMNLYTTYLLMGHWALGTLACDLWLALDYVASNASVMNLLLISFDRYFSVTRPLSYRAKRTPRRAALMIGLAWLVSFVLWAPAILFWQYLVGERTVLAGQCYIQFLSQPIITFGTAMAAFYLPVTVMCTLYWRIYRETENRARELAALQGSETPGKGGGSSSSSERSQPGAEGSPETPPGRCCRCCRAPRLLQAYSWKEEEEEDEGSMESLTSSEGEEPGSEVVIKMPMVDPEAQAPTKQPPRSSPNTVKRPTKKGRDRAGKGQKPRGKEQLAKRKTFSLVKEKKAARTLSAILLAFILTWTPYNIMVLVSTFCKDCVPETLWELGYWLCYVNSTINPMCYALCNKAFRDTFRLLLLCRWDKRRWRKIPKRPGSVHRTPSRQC
The test can be described thus: Measurement of M1 receptor positive allosteric modulator (M1PAM) activity, calcium fluorescence in CHO-K1 cells. Format: cell-based. Particulars: for activity (%) at 10 μM: 10 μM test compound with acetylcholine at EC20, 100% = acetylcholine 1 μM, 0% = DMSO; for EC50: inflection point in the concentration-dependent curve, acetylcholine at EC20 (final 0.6-0.8 nM), CHO-K1 cells expressing human M1, Fluo-4, FLIPRtetra, read-out: IP value. The procedure:
Measurement of M1 Receptor Positive Allosteric Modulator (M1PAM) Activity
The activity of a test compound in the presence of acetylcholine at EC20 concentration (final concentration 0.6-0.8 nM), which affords an action corresponding to about 20% of the maximum activity, was measured as PAM activity. The method is as follows. CHO-K1 cells stably expressing a human M1 receptor (hCHRM1) were plated on a 384-well black clear bottom plate (BD Falcon) at 5,000 cells/well, and cultured in an incubator at 37° C., 5% CO2 for 1 day. The medium in the cell plate was removed, and assay buffer A containing calcium indicator (Recording medium (DOJINDO LABORATORIES), 0.1% BSA (Wako Pure Chemical Industries, Ltd.), 2.5 μg/mL Fluo-4 AM (DOJINDO LABORATORIES), 0.08% Pluronic F127 (DOJINDO LABORATORIES), 1.25 mM probenecid (DOJINDO LABORATORIES)) was added at 30 μL/well. The cells were left standing in the incubator at 37° C., 5% CO2 for 30 min, and further left standing at room temperature for 30 min. A test compound prepared by diluting with assay buffer B (HBSS (Invitrogen), 20 mM HEPES (Invitrogen), 0.1% BSA) containing 2.4-3.2 nM acetylcholine was added at 10 μL/well, and the fluorescence was measured by FLIPRtetra (Molecular Devices) for 1 min every 1 second. With the definition that the amount of change in the fluorescence on addition of acetylcholine (final concentration 1 μM) is 100% and that on addition of DMSO instead of a test compound is 0%, the activity (%) of the test compound was calculated, and the inflection point in the concentration-dependent curve of the test compound was calculated as IP values.

On to `CCn1cc(-c2ccc(CN3Cc4ncnc(OCC(C)(F)F)c4C3=O)c(F)c2)cn1` [Example 3, 4-(2,2-difluoropropoxy)-6-(4-(1-ethyl-1H-pyrazol-4-yl)-2-fluorobenzyl)-6,7-dihydro-5H-pyrrolo[3,4-d]pyrimidin-5-one], for which the “activity (%) at 10 μM” value is 103% and the EC50 came to 8.9 nM.
In the same order, the values of `Cn1cc(-c2ccc(CN3Cc4ccnc(OCCC(F)(F)F)c4C3=O)c(F)c2)nn1` [Example 16, 2-(2-fluoro-4-(1-methyl-1H-1,2,3-triazol-4-yl)benzyl)-4-(3,3,3-trifluoropropoxy)-1,2-dihydro-3H-pyrrolo[3,4-c]pyridin-3-one] are 111% and 85 nM.
Take `CCC(F)(F)COc1ncnc2c1C(=O)N(Cc1ccc(-c3cn(C)nc3C)cc1)C2` [Example 8, 4-(2,2-difluorobutoxy)-6-(4-(1,3-dimethyl-1H-pyrazol-4-yl)benzyl)-6,7-dihydro-5H-pyrrolo[3,4-d]pyrimidin-5-one]: the “activity (%) at 10 μM” value is reported as 109% and the EC50 turned out to be 23 nM.
On the same counts, the results for `Cc1nn(C)cc1-c1ccc(CN2Cc3ccnc(OCC(F)F)c3C2=O)c(F)c1` [Example 112, 4-(2,2-difluoroethoxy)-2-(4-(1,3-dimethyl-1H-pyrazol-4-yl)-2-fluorobenzyl)-1,2-dihydro-3H-pyrrolo[3,4-c]pyridin-3-one] are 101% and 41 nM.
As for `Cn1cc(-c2ccc(CN3Cc4ccnc(OCC(F)(F)F)c4C3=O)c(F)c2)nn1` [Example 114, 2-(2-fluoro-4-(1-methyl-1H-1,2,3-triazol-4-yl)benzyl)-4-(2,2,2-trifluoroethoxy)-1,2-dihydro-3H-pyrrolo[3,4-c]pyridin-3-one], the “activity (%) at 10 μM” value is 102% and the EC50 was determined as 56 nM.
Regarding `CC(F)(F)COc1nccc2c1C(=O)N(Cc1ccc(-c3cnn(CC(F)F)c3)cc1)C2` [Example 13, 2-(4-(1-(2,2-difluoroethyl)-1H-pyrazol-4-yl)benzyl)-4-(2,2-difluoropropoxy)-1,2-dihydro-3H-pyrrolo[3,4-c]pyridin-3-one], the “activity (%) at 10 μM” value amounted to 100% and the EC50 came out at 55 nM.
With `CC(F)(F)COc1nccc2c1C(=O)N(Cc1ccc(-c3ccoc3)cc1F)C2` [Example 21, 4-(2,2-difluoropropoxy)-2-(2-fluoro-4-(3-furyl)benzyl)-1,2-dihydro-3H-pyrrolo[3,4-c]pyridin-3-one], the “activity (%) at 10 μM” value amounted to 101% and the EC50 turned out to be 290 nM.
In the case of `CCn1cc(-c2ccc(CN3Cc4ccnc(OCC(F)F)c4C3=O)cc2)cn1` [Example 66, 4-(2,2-difluoroethoxy)-2-(4-(1-ethyl-1H-pyrazol-4-yl)benzyl)-1,2-dihydro-3H-pyrrolo[3,4-c]pyridin-3-one], the “activity (%) at 10 μM” value was determined as 105% and the EC50 is 66 nM.
In the case of `CCC(F)(F)COc1nccc2c1C(=O)N(Cc1ccc(-c3cnn(C)c3)cc1F)C2` [Example 92, 4-(2,2-difluorobutoxy)-2-(2-fluoro-4-(1-methyl-1H-pyrazol-4-yl)benzyl)-1,2-dihydro-3H-pyrrolo[3,4-c]pyridin-3-one], the “activity (%) at 10 μM” value stood at 94% and the EC50 was determined as 15 nM.
On the same counts, the results for `Cn1cc(-c2ccc(CN3Cc4ccnc(OCC(C)(F)F)c4C3=O)cc2)nn1` [Example 107, 4-(2,2-difluoropropoxy)-2-(4-(1-methyl-1H-1,2,3-triazol-4-yl)benzyl)-1,2-dihydro-3H-pyrrolo[3,4-c]pyridin-3-one] are 92% and 72 nM.
Consider `CCn1cc(-c2ccc(CN3Cc4ccnc(OCC(F)(F)CC)c4C3=O)cc2)cn1` [Example 77, 4-(2,2-difluorobutoxy)-2-(4-(1-ethyl-1H-pyrazol-4-yl)benzyl)-1,2-dihydro-3H-pyrrolo[3,4-c]pyridin-3-one], for which the “activity (%) at 10 μM” value is given as 99% and the EC50 came to 68 nM.
With `CC(F)(F)COc1nccc2c1C(=O)N(Cc1ccc(-c3cnn(CC(F)(F)F)c3)cc1)C2` [Example 12, 4-(2,2-difluoropropoxy)-2-(4-(1-(2,2,2-trifluoroethyl)-1H-pyrazol-4-yl)benzyl)-1,2-dihydro-3H-pyrrolo[3,4-c]pyridin-3-one], the “activity (%) at 10 μM” value was found to be 97% and the EC50 was found to be 59 nM.
On the same counts, the results for `Cn1cc(-c2ccc(CN3Cc4ccnc(OCC(C)(F)F)c4C3=O)c(F)c2)nn1` [Example 106, 4-(2,2-difluoropropoxy)-2-(2-fluoro-4-(1-methyl-1H-1,2,3-triazol-4-yl)benzyl)-1,2-dihydro-3H-pyrrolo[3,4-c]pyridin-3-one] are 90% and 29 nM.
In the same order, the values of `Cc1nn(C)cc1-c1cc(F)c(CN2Cc3ncnc(OCC(F)F)c3C2=O)s1` [Example 15, 4-(2,2-difluoroethoxy)-6-((5-(1,3-dimethyl-1H-pyrazol-4-yl)-3-fluoro-2-thienyl)methyl)-6,7-dihydro-5H-pyrrolo[3,4-d]pyrimidin-5-one] are 100% and 16 nM.
In the same order, the values of `CCn1cc(-c2ccc(CN3Cc4ncnc(OCC(F)(F)CC)c4C3=O)cc2)cn1` [Example 68, 4-(2,2-difluorobutoxy)-6-(4-(1-ethyl-1H-pyrazol-4-yl)benzyl)-6,7-dihydro-5H-pyrrolo[3,4-d]pyrimidin-5-one] are 97% and 7.1 nM.
For `CCC(F)(F)COc1nccc2c1C(=O)N(Cc1ccc(-c3cn(C)nc3C)cc1F)C2` [Example 7, 4-(2,2-difluorobutoxy)-2-(4-(1,3-dimethyl-1H-pyrazol-4-yl)-2-fluorobenzyl)-1,2-dihydro-3H-pyrrolo[3,4-c]pyridin-3-one], the “activity (%) at 10 μM” value is recorded as 90% and the EC50 is 9.1 nM.
On the same counts, the results for `Cc1nn(C)cc1-c1ccc(CN2Cc3ncnc(OCC(C)(C)F)c3C2=O)cc1` [Example 5, 6-(4-(1,3-dimethyl-1H-pyrazol-4-yl)benzyl)-4-(2-fluoro-2-methylpropoxy)-6,7-dihydro-5H-pyrrolo[3,4-d]pyrimidin-5-one] are 105% and 17 nM.
On the same counts, the results for `CC(F)(F)COc1nccc2c1C(=O)N(Cc1ccc(-c3ccns3)cc1)C2` [Example 20, 4-(2,2-difluoropropoxy)-2-(4-(1,2-thiazol-5-yl)benzyl)-1,2-dihydro-3H-pyrrolo[3,4-c]pyridin-3-one] are 91% and 360 nM.
On the same counts, the results for `CCC(F)(F)COc1nccc2c1C(=O)N(Cc1ccc(-c3cnn(CC(F)(F)F)c3)cc1F)C2` [Example 62, 4-(2,2-difluorobutoxy)-2-(2-fluoro-4-(1-(2,2,2-trifluoroethyl)-1H-pyrazol-4-yl)benzyl)-1,2-dihydro-3H-pyrrolo[3,4-c]pyridin-3-one] are 91% and 40 nM.
`CCC(F)(F)COc1nccc2c1C(=O)N(Cc1ccc(-c3cnn(CC(F)(F)F)c3)cc1)C2` [Example 73, 4-(2,2-difluorobutoxy)-2-(4-(1-(2,2,2-trifluoroethyl)-1H-pyrazol-4-yl)benzyl)-1,2-dihydro-3H-pyrrolo[3,4-c]pyridin-3-one]: the “activity (%) at 10 μM” value was determined as 94% and the EC50 came to 50 nM.
On the same counts, the results for `CCC(F)(F)COc1nccc2c1C(=O)N(Cc1ccc(-c3cnn(CC(F)F)c3)cc1F)C2` [Example 59, 4-(2,2-difluorobutoxy)-2-(4-(1-(2,2-difluoroethyl)-1H-pyrazol-4-yl)-2-fluorobenzyl)-1,2-dihydro-3H-pyrrolo[3,4-c]pyridin-3-one] are 107% and 17 nM.
On the same counts, the results for `Cc1nn(C)cc1-c1ccc(CN2Cc3ncnc(OCC(F)F)c3C2=O)s1` [Example 34, 4-(2,2-difluoroethoxy)-6-((5-(1,3-dimethyl-1H-pyrazol-4-yl)-2-thienyl)methyl)-6,7-dihydro-5H-pyrrolo[3,4-d]pyrimidin-5-one] are 100% and 77 nM.
